The values that follow are results of earlier work, collected in patent US20230233498A1, “COMPOSITIONS AND METHODS FOR THE TREATMENT OF COVID-19” (PROTHIONE, LLC, priority 2020, published 2023).

For data set [1], the system named is zinc-dependent metalloproteinases. Particulars: for GP shedding: higher concentrations (25-50 mM).
In data set [2] the test system is rotaviruses. Particulars: 10 mM.
Data set [3] relates to Human Foreskin (HF) cells infected with HSV-2-strain G. Particulars: 3 to 1.5 mM.

The structures appear in SMILES notation. Like-named read-outs stand apart in the source and are kept apart here.

In the case of `CNC(=O)[C@@H](NC(=O)[C@H](CC(C)C)[C@H](O)C(=O)NO)C(C)(C)C` [BB2516], the “inhibition of glycoprotein shedding” value in data set [1] (concentration of 0.5 mM) is “inhibitory effects were observed”.
In the case of `COc1ccc(S(=O)(=O)N(Cc2cccnc2)[C@@H](C(=O)NO)C(C)C)cc1` [CGS-27023A], in data set [1], the GP shedding result is reported as “reduced GP shedding”.
For `O=C(O)CN(CCN(CC(=O)O)CC(=O)O)CC(=O)O` [EDTA, ethylenediaminetetraacetic acid], in data set [2], the “effect on viral particles” value is reported as “non-infectious viral particles”.
Turning to `CNC(=O)[C@H](Cc1c[nH]c2ccccc12)NC(=O)[C@@H](CC(=O)NO)CC(C)C` [GM6001], in data set [1] (concentration of 5 mM), the “inhibition of glycoprotein shedding” value was “inhibitory effects were observed”.
In the case of `COc1ccc(S(=O)(=O)N(CC(=O)NO)CC(C)C)cc1` [MMP-3 inhibitor II], the GP shedding result in data set [1] is on record as “reduced GP shedding”.
For the compound `COc1ccc(S(=O)(=O)N2Cc3ccccc3C[C@@H]2C(=O)NO)cc1` [MMP-8 inhibitor I], in data set [1] (concentration of 5 mM), the “inhibition of glycoprotein shedding” value is “inhibitory effects were observed”.
Take `CC(C)C[C@H](CC(=O)NO)C(=O)N[C@@H](Cc1ccc2ccccc2c1)C(=O)N[C@@H](C)C(=O)NCCN` [TAPI-I]: the GP shedding result in data set [1] is reported as “reduced GP shedding”.
For `O=C(O)c1ccccn1` [picolinic acid], in data set [3], the “apoptosis of infected cells” value was “cause apoptosis of HF infected cells”.
